Earlier results, collected in US20140044780A1, “Extended-Release Levetiracetam and Method of Preparation” (PharmTak, Inc., priority 2012, published 2014).

Solubility in water: 104 g/100 mL
Structure (SMILES): CC[C@@H](C(N)=O)N1CCCC1=O (single isomer, unassigned) [Levetiracetam]
